From article PMC7392643, “Antibiotic fidaxomicin is an RdRp inhibitor as a potential new therapeutic agent against Zika virus” (BMC Medicine, 2020)

Tests used:
[1] = tested on: STAT2 degradation induced by NS5; experiment: Western blotting of STAT2 in 293T cells transfected with ZIKV NS5; format: cell-based, human
Experimental: (§1) Tissue specimens obtained from mice or cells were lysed with RIPA lysis buffer (Millipore, Bedford, MA) containing a cocktail of protease and phosphatase inhibitors (Sigma-Aldrich, St. Louis, MO, USA). Protein concentrations were measured with a bicinchoninic acid (BCA) protein assay (Thermo Fisher Scientific, Rockford, IL, USA). Protein samples were separated by sodium dodecyl sulfate-polyacrylamide gel electrophoresis (SDS-PAGE) and transferred onto a polyvinylidene difluoride (PVDF) membrane. Non-specific antibody binding sites were blocked with 5% non-fat milk in Tris-buffered saline (TBS) (20 mM Tris-HCl [pH 7.6], 135 mM NaCl, and 0.1% Tween 20) for 1 h at room temperature and then incubated with the following primary antibodies: anti-STAT2 (1:1000, sc166201, Santa Cruz Biotechnology, Santa Cruz, CA, USA), anti-ZIKV E (1:1000, BF-1176-56, BioFront Technologies, Tallahassee, USA), anti-ZIKV NS5 (1:1000, BF-6A1-100UG, BioFront), and anti-ZIKV NS3 (1:1000, GTX133309, GeneTex, Alton Pkwy, Irvine, CA, USA). Anti-GAPDH (1:2000, ab181602, Abcam, Cambridge, MA, USA) or mouse anti-GAPDH (1:1000, ab9484, Abcam) was used as a loading control. […] The relative protein level was quantified by densitometry and normalized to GAPDH or mGAPDH level using Image J software (NIH, Bethesda, MD, USA).

DENV2 NS5 protein = target: T1, DENV2 NS5 protein (Dengue virus type 2, UniProt P14340); experiment: SPR (BIAcore) binding to DENV2 NS5 protein; conditions: qualitative
T1 construct: DENV2 NS5 (amino acids 1 to 900); His tag (N); made in house
Experimental: The cDNA fragment of ZIKV (ZG-01 strain) NS5 (amino acids 1 to 903), RdRp (amino acids 272 to 903), or DENV2 NS5 (amino acids 1 to 900) containing an N-terminal His tag sequence was cloned into a pET-30a-mutant vector. For protein expression, the plasmids were transformed into Rosetta™ competent cells (TIANGEN BIOTECH Co., Ltd., Beijing, China), respectively. […] Mass spectrometry was performed by Shanghai Applied Protein Technology Co. Ltd. (Shanghai, China). The concentration of a targeted protein was measured by SDS-PAGE using BSA (Sigma, St. Louis, MO) as a standard.
Surface plasmon resonance (SPR) experiments were performed in a BIAcore T100 device (BIAcore Inc., Uppsala, Sweden) using CM5 sensor chips (General Electric Company, GE) according to the protocol provided by the manufacturer. Briefly, recombinant ZIKV NS5 protein, RdRp protein, or DENV2 NS5 protein was immobilized on a CM5 chip, respectively. Different concentrations of fidaxomicin or ribavirin were injected at a flow rate of 30 μL/min for 3 min. Subsequently, data were collected for a 3-min association followed by a 20-min dissociation. The chip was regenerated by injecting 10 μL of 15 mM NaOH for 20 s. […] The binding kinetics was analyzed with the software BIAevaluation version 3.1 using a 1:1 Langmuir binding model. The Kd was calculated as previously described.

ZIKV (ZG-01) = experiment: Western blotting of ZIKV proteins in infected SNB19 cells; format: cell-based, Zika virus
Experimental: as §1

[2] = tested on: suppression of IFN signaling induced by ZIKV NS5; experiment: pISRE-Luc luciferase reporter assay in 293T cells; format: cell-based, human; conditions: RIG-I(N) driven, 30 h treatment
Experimental: 293T cells were cultured in 24-well plates (~ 1 × 10^5 cells per well) and co-transfected with pISRE-Luc (100 ng) and the plasmid coding for RIG-I (100 ng) together with the ZIKV NS5 plasmid at indicated concentrations. Control pcDNA3.1 vector was added to ensure that the same total amount of DNA was used for each transfection. To normalize for transfection efficiency, 5 ng of the constitutive Renilla luciferase reporter pRL-TK (Promega, San Luis Obispo, CA, USA) was added to each transfection. Six hours after transfection, cells were treated by fidaxomicin at indicated concentration for 30 h, followed by analysis of cell lysates for luciferase activity using the Dual-Luciferase Reporter Assay System Kit (Promega) according to the manufacturer’s protocol.

[3] = set-up: method as in PMID 22752858; conditions: rats; cited from earlier work
ZIKV ZG-01 strain = experiment: In vitro antiviral assay, plaque assay, ZIKV ZG-01
Experimental: The anti-ZIKV activity of fidaxomicin and ribavirin was evaluated in vitro by plaque assay. Various cell lines, including SNB19 (6 × 10^4/well, 10% FBS DMEM), A172 (7 × 10^4/well, 10% FBS DMEM), Vero (6 × 10^4/well 10% FBS DMEM), Huh7 (7 × 10^4/well, 10% FBS DMEM), HUVECs (7 × 10^4/well, 15% FBS M199 medium supplemented with 2 mM L-glutamine, 0.02 mg/mL endothelial cell growth supplement, and 0.05 mg/mL heparin), and A549 (6 × 10^4/well, 5% FBS DMEM), were plated in 12-well plates and allowed to attach overnight, followed by infection with ZIKV (ZG-01 strain or MR766 strain, respectively, at indicated MOI) in the presence of different concentrations of fidaxomicin, ribavirin, or vehicle control for 1 h, followed by two washes with 1 × PBS and incubated with fresh medium (without virus) consisting of corresponding concentrations of the compounds for further 48 h. The cell supernatants were collected to quantify ZIKV infection by plaque assay as previously described or by RT-qPCR. […] The anti-DENV activity of fidaxomicin was evaluated in vitro by RT-qPCR.

## CCc1c(Cl)c(O)c(Cl)c(O)c1C(=O)O[C@H]1[C@H](O)[C@H](OC)[C@H](OC/C2=C\C=C\C[C@H](O)/C(C)=C/[C@H](CC)[C@@H](O[C@@H]3OC(C)(C)[C@@H](OC(=O)C(C)C)[C@H](O)[C@@H]3O)/C(C)=C/C(C)=C/C[C@@H]([C@@H](C)O)OC2=O)O[C@@H]1C [Fidaxomicin]
[1]
  effect on STAT2 degradation in presence of NS5: did not prevent the degradation of STAT2
DENV2 NS5 protein
  binding to DENV2 NS5 protein (SPR): affinity
ZIKV (ZG-01); SNB19 cell lysates, time-dependent
  amount of ZIKV NS3 protein: decreased
ZIKV (ZG-01); SNB19 cells, MOI 1.0 and 2.0
  ZIKV NS5 and E proteins: decreased
[2]
  effect on NS5 suppression of ISRE reporter luciferase activity: did not liberate the suppression of IFN signaling
[3]
  No Observed Adverse Effect Level (NOAEL): 62.5 mg/kg
ZIKV ZG-01 strain; SNB19 cells
  EC50 lower than that of ribavirin: 10 fold
ZIKV ZG-01 strain; SNB19 cells, plaque assay
  concentration above which ZIKV infection was completely undetectable: exceeded 18 μM
ZIKV ZG-01 strain; SNB19 cells, plaque assay, 48 h
  EC90: 8.9 ± 0.6 µM
ZIKV ZG-01 strain; Zika virus, A549, 48 h
  EC50: 12.2 ± 3.6 µM
ZIKV ZG-01 strain; Zika virus, A549, 48 h, A549 cells, plaque assay, 48 h
  EC90: 39.5 ± 4.8 µM
ZIKV ZG-01 strain; Zika virus, Huh-7, 48 h
  EC50: 7.7 ± 1.7 µM
ZIKV ZG-01 strain; Zika virus, Huh-7, 48 h, Huh7 cells, plaque assay, 48 h
  EC90: 17.8 ± 3.5 µM
ZIKV ZG-01 strain; Zika virus, SNB-19, 48 h
  EC50: 6 ± 1 µM
ZIKV ZG-01 strain; Zika virus, SNB-19, 48 h, SNB19 cells, plaque assay, 48 h
  EC90: ~9 µM
ZIKV ZG-01 strain; Zika virus, Vero, 48 h
  EC50: 11.7 ± 2.1 µM
ZIKV ZG-01 strain; Zika virus, Vero, 48 h, Vero cells, plaque assay
  EC90: 48.2 ± 5.3 µM
